Literature values in US7858592B2, “Interfering RNAs against the promoter region of P53” (The Board of Regents of the University of Texas System, priority 2007, dated 2010).
Counter-ions that a name gives are not always drawn.

How the values were obtained:
[1] = not given; remark: listed apart in the source
[2] = not given; remark: listed apart in the source

O=NN(CCCl)C(=O)NC1CCCCC1 [Lomustine, 1-(2-chloro-ethyl)-3-cyclohexyl-1 nitrosourea]
tissue levels versus plasma levels (15 minutes after intravenous administration): comparable to plasma levels

N[C@H](Cc1ccc(N(CCCl)CCCl)cc1)C(=O)O [medphalan]
activity relative to the L-isomer (certain animal tumors): less active

CC[C@@]1(O)C(=O)OCc2c1cc1n(c2=O)Cc2cc3ccccc3nc2-1 [Camptothecin]
solubility in water [1]: poor water-solubility

CC[C@]1(O)C[C@H]2CN(CCc3c([nH]c4ccccc34)[C@@](C(=O)OC)(c3cc4c(cc3OC)N(C=O)[C@H]3[C@@](O)(C(=O)OC)[C@H](OC(C)=O)[C@]5(CC)C=CCN6CC[C@]43[C@@H]65)C2)C1 [Vincristine]
toxicity for normal marrow cells and epithelial cells ([2]; in vivo): relatively low toxicity

O.O=P1(N(CCCl)CCCl)NCCCO1 (stereo not drawn) [Cyclophosphamide, 2H-1,3,2-Oxazaphosphorin-2-amine, N,N-bis(2-chloroethyl)tetrahydro-, 2-oxide, monohydrate]
local tolerability ([2]; oral and parental routes): does not cause local vesication, necrosis, phlebitis or even pain

COc1cccc2c1C(=O)c1c(O)c3c(c(O)c1C2=O)C[C@@](O)(C(=O)CO)C[C@@H]3O[C@H]1C[C@H](N)[C@H](O)[C@H](C)O1 [Doxorubicin, 5,12-Naphthacenedione, (8s-cis)-10-[(3-amino-2,3,6-trideoxy-a-L-lyxo-hexopyranosyl)oxy]-7,8,9,10-tetrahydro-6,8,11-trihydroxy-8-(hydroxyacetyl)-1-methoxy-hydrochloride]
excreted into the urine (in vivo): a few percent
